Assay results reported in PMC10382589, “In vitro and in vivo antiplasmodial evaluation of sugar-modified nucleoside analogues” (Scientific Reports, 2023).
Like-named read-outs stand apart in the source and are kept apart here.

Tests used:
P. berghei ANKA = assay: In vivo antiplasmodial activity in P. berghei ANKA infected BALB/c mice; parameters: species or system Plasmodium berghei ANKA
Description: In vivo antiplasmodial efficacy of 7 was assessed in P. berghei ANKA infected BALB/c mice model. Compound dose was given intra-peritoneal injections for seven days in a row. To check the parasitemia, thin blood smears were made from P. berghei ANKA infected mice for up to seven consecutive days. […] Compound 7 was able to effectively reduce the parasite load compared to a control group of untreated mice for seven consecutive days post infection.
To make relevant inferences, statistical analyses were carried out on the in vivo data using Graphpad Prism data sheets.
Antiplasmodial activity of hit compound 7 was investigated in mice model with the help of protocol described previously. Briefly, intra-peritoneal injection of 1 × 10^7 Plasmodium berghei ANKA infected erythrocytes diluted with sterile 1 × PBS was injected into mice. In each group five mice were taken. Thin smears were made from the tail blood of mice to check the infection. Post infection, P. berghei infected mice administered intra-peritoneally with compound 7 with the dose of 50 mg/kg body weight, daily for seven consecutive days post infection. Mice treated with 1xPBS were kept as vehicle control. […] Data were calculated and presented as percentage increase in the parasitemia. All animal experiments were carried out in accordance with the standard approved procedures. […]

[1] = test system: Pf3D7 chloroquine-sensitive strain; assay: SYBR green I based fluorescence growth inhibition assay, Pf3D7; format: cell-based, Plasmodium falciparum; details: for IC50: Plasmodium falciparum, chloroquine-sensitive strain, synchronized late trophozoite parasites, SYBR Green, triplicate, mean ± SD, read-out: IC50 (µM) against Pf3D7; for growth inhibition against Pf3D7 (in words): screen at 1 µM and 10 µM, vs untreated control (Fig. S1)
Description: Growth of one intraerythrocytic cycle of Pf was monitored after treated with compounds whereas untreated parasites were considered as control.
(§1) The percent growth inhibition of the parasites was evaluated by SYBR Green assay.
(§2) Pf3D7 and PfRKL-9 were cultured by following procedure reported by Trager and Jensen[33]. […] In order to examine the morphological changes in the parasite, a blood film must be prepared. A thin blood film was air-dried, fixed with methanol, and allowed to dry before staining. […] Light microscopy analysis was carried out to evaluate the inhibitory effect of compounds at different concentrations against Pf3D7 and PfRKL-9.
SYBR green I based fluorescence assay was performed to measure the growth inhibition effect of the 26 compounds and further dose dependent assay against Pf3D7, and PfRKL-9 (Indian field strain, source- NIMR, New Delhi, India) was carried out at different concentrations. […] Parasitized erythrocytes were treated with different concentrations of compounds ranging from 1 µM to 10 µM, whereas DMSO worked as a control. Triplicate wells of parasitized erythrocytes treated with compounds were seeded in 96 well microtiter plate following incubation at 37 °C for one cycle of parasite growth. […] Growth inhibition (%) was calculated as follows: % Inhibition = [1 − % Parasitemia (Treatment)/% Parasitemia (Control)] *100. Data were expressed as mean ± SD.

[2] = test system: Mitochondrial membrane potential of the malaria parasites; assay: JC-1 mitochondrial membrane potential assay; format: cell-based, Plasmodium falciparum; details: parasites treated with IC50 concentration for 3 h; untreated control 7.04 ± 1.30
Excerpt: Mitochondrial membrane potential is a marker of mitochondria’s functional status. Modification in mitochondrial membrane potential leading to mitochondrial dysfunction triggers cell death[25],[26]. Mitochondrial dysfunction was detected by using membrane permeant JC-1 dye. JC-1 is a cationic probe, due to electronegative environment inside the functionally active mitochondria with high Δψm, it aggregates in energised mitochondria and gives red color fluorescence at 590 nm, but in case of low Δψm (depolarized state), JC-1 remain in monomeric form and gives green color fluorescence at […]. Decreased ratio of red/green fluorescence intensity of compound treated sample as compared to untreated control indicates depolarized mitochondrial membrane[27],[28]. The damage to the parasite's mitochondria after treatment with compounds 7, 16, 17, 18 and 1 was measured according to the method reported previously. Because of lipophilic nature of the JC-1, it is cell permeable and emits a green signal (525 nm) in the cytoplasm, but the high transmembrane potential of functional mitochondria causes it to aggregate and emit a red signal (590 nm). […]. Mitochondrial membrane potential of the malaria parasites was determined by using MitoProbe™ JC-1 assay as described previously. In brief, trophozoite stage parasites (10–12% parasitemia) were treated with IC50 concentration of compounds 7, 16, 17, 18 and 1 for 3 h at 37 °C in the CO2 incubator. Samples were washed with 1 × PBS by centrifugation at 500 × g for 2 min at RT. Freshly prepared JC-1 dye was added to each sample with working concentration of 5 µg/mL. Incubation was done for 30 min at 37 °C in a CO2 incubator. Cells were washed twice with 1 × PBS. Spectrofluorometer was used to observe mitochondrial membrane potential by measuring fluoroscence intensities from the parasite lysate at wavelength of excitation (520 nm) and emission (590 nm) respectively. In vivo cell imaging was done with the help of Olympus fluoview 3000 confocal microscopy. Live cell imaging was observed under a 100X objective (oil immersion) and band pass filter at 355–460 nm. Experiments were repeated thrice and only representative figures are shown (Fig. 6).

[3] = test system: chloroquine resistant strain PfRKL-9; assay: SYBR green I based fluorescence growth inhibition assay, PfRKL-9; format: cell-based; details: Plasmodium falciparum, synchronized late trophozoite parasites, triplicate, mean ± SD, read-out: IC50 (µM) against PfRKL-9
Description: as §1, §2
SYBR green I based fluorescence assay was performed to measure the growth inhibition effect of the 26 compounds and further dose dependent assay against Pf3D7, and PfRKL-9 (Indian field strain, source- NIMR, New Delhi, India) was carried out at different concentrations. In brief, Pf3D7 and PfRKL-9 parasitized erythrocytes (trophozoite stage with 1% parasitemia) were diluted with noninfected erythrocytes at a constant 2% hematocrit in culture medium. Parasitized erythrocytes were treated with different concentrations of compounds ranging from 1 µM to 10 µM, whereas DMSO worked as a control. Triplicate wells of parasitized erythrocytes treated with compounds were seeded in 96 well microtiter plate following incubation at 37 °C for one cycle of parasite growth. […] Growth inhibition (%) was calculated as follows: % Inhibition = [1 − % Parasitemia (Treatment)/% Parasitemia (Control)] *100. Data were expressed as mean ± SD.

[4] = test system: embryonic kidney cell lines, HEK-293
Description: Cytotoxicity against human embryonic kidney cell line (ATCC) was determined using MTT dye[35]. In order to measuring the cytotoxicity of the compounds we used MTT dye to detect live/dead cells. […] cells were stored at 37 °C, 5% CO2 in […] sterile culture flasks (Corning) in complete Dulbecco's Modified Eagle Medium (DMEM) culture medium (a) supplemented with 5% Fetal Bovine Serum (FBS), gentamicin ([…]), with changing the medium thrice a week. The monolayers were washed, counted, diluted in complete medium, distributed in 96-well microtiter plates (5000 cells/well), followed by incubation for another 24 h at 37 °C. The test compounds and DMSO were added in triplicate. After a 48 h incubation at 37 °C, the supernatant was removed and 100 µL of MTT solution in complete DMEM was added to each well, followed by 2 h incubation at 37 °C. The culture plates were read in a spectrophotometer (Tecan infinite M200, nanoquant, UK) with a 490 nm filter, and the cytotoxic concentrations were determined based on a dose response curve.

human RBCs = assay: Hemolytic activity on human RBCs; format: cell-based; details: 0.5-20 µM, 10% (v/v) RBC suspension, 1 h, absorbance at 415 nm
Description: Effect of compounds on human RBCs was checked with the help of spectrophotometry by measuring the lysis of human red blood cells (hRBCs). Compounds were tested at 0.5, 1, 5, 10 and 20 μM concentrations with 10% (v/v) RBCs suspension for 1 h and observed the percentage of RBCs lysis by compounds 7, 16, 17, 18 and 1.
Human RBCs were from Rotary Blood Bank, Tughlakabad Institutional Area, New Delhi, India. Effect of compounds on RBCs was checked by hemolytic assay. In brief, RBCs suspension with 10% (v/v) washed with 1 × Phosphate-buffered saline (PBS) (pH 7.4) and again resuspended in 1 × PBS. RBCs suspension was incubated with compounds 7, 16, 17, 18 and 1 at different concentrations (0.5, 1, 5, 10 and 20 μM) for 1 h at 37 °C. Samples were centrifuged and supernatant was taken for absorbance at 415 nm. Triton X-100 with 1% (v/v) was used as a positive control. Experiment was done in triplicate.

Row | SMILES | percentage parasitemia on the seventh day (P. berghei ANKA; 50 mg/kg intra-peritoneal, seven days, control 25%) [%] | Mean survival time (MST) (P. berghei ANKA; 50 mg/kg, observed 21 days post-infection, control MST = 10 days) [days] | IC50 [1] [µM] | growth inhibition against Pf3D7 (in words) [1] | JC-1 red/green ratio [2] | IC50 [3] [µM] | Cell survival (%) at 500 µM ([4]; HEK-293 cells, MTT, 48 h incubation) [%] | lysis of human RBCs (in words) (human RBCs) | Cell survival (%) at 500 µM ([4]; human, 48 h) [%]
1 | CC(=O)OC[C@H]1O[C@@H](SC[C@@H]2O[C@@H](n3cnc4c(NC(c5ccccc5)(c5ccccc5)c5ccccc5)ncnc43)[C@@H]3OC(C)(C)O[C@@H]32)[C@H](OC(C)=O)[C@@H](OC(C)=O)[C@@H]1OC(C)=O [Compound 7, 1-[2’,3’-O-isopropylidene-5’-S-(2,3,4,6-tetra-O-acetyl-β-D-glucopyranosyl)-5’-thio-α-L-lyxofuranosyl]-N-trityl-adenine] | 10 | 14 | 0.92 ± 1.8 | significant growth inhibition in a dose dependent manner | 5.26 ± 1.13 | 2.1 ± 1.3 | 55 | no significant lysis | 
2 | CC(=O)OC[C@H]1O[C@@H](SC[C@@H]2[C@@H](O[Si](C)(C)C(C)(C)C)[C@H](n3ccc(=O)[nH]c3=O)O[C@@H]2CO[Si](C)(C)C(C)(C)C)[C@H](OC(C)=O)[C@@H](OC(C)=O)[C@H]1OC(C)=O [Compound 16, 1-[3’-Deoxy-3’-C-(-2,3,4,6-tetra-O-acetyl-β-D-galactopyranosyl-sulfanylmethyl)-2’,5’-di-O-(tert-butyldimethylsilyl)-β-D-xylofuranosyl]-uracil] |  |  | 1.78 ± 1.3 | significant growth inhibition in a dose dependent manner | 4.98 ± 1.77 | 9.55 ± 1.7 |  | no significant lysis | 52
3 | CC(=O)O[C@@H]1[C@@H](OC(C)=O)[C@H](SC[C@@H]2[C@@H](O[Si](C)(C)C(C)(C)C)[C@H](n3ccc(=O)[nH]c3=O)O[C@@H]2CO[Si](C)(C)C(C)(C)C)OC[C@H]1OC(C)=O [Compound 17, 1-[3’-Deoxy-3’-C-(-2,3,4-tri-O-acetyl-β-D-xylopyranosyl-sulfanylmethyl)-2’,5’-di-O-(tert-butyldimethylsilyl)-β-D-xylofuranosyl]-uracil] |  |  | 1.33 ± 1.07 | significant growth inhibition in a dose dependent manner | 6.28 ± 1.55 | 1.84 ± 1.06 |  | no significant lysis | 51
4 | CC(=O)N[C@@H]1[C@@H](OC(C)=O)[C@H](OC(C)=O)[C@@H](COC(C)=O)O[C@H]1SC[C@@H]1[C@@H](O[Si](C)(C)C(C)(C)C)[C@H](n2cc(C)c(=O)[nH]c2=O)O[C@@H]1CO[Si](C)(C)C(C)(C)C [Compound 18, 1-[3’-Deoxy-3’-C-((2-acetamido-3,4,6-tri-O-acetyl-β-D-glucopyranosylthio)methyl)-2’,5’-di-O-(tert-butyldimethylsilyl)-β-D-xylofuranosyl]-5-methyluracil] |  |  | 1.15 ± 1.5 | significant growth inhibition in a dose dependent manner | 5.53 ± 1.40 | 2.21 ± 1.3 |  | no significant lysis | 60
